The source of these data is patent US12583858B2 (Genentech, Inc., priority 2015, dated 2026).

Molecules are shown by their SMILES.

T1 sequence (P48775 whole entry): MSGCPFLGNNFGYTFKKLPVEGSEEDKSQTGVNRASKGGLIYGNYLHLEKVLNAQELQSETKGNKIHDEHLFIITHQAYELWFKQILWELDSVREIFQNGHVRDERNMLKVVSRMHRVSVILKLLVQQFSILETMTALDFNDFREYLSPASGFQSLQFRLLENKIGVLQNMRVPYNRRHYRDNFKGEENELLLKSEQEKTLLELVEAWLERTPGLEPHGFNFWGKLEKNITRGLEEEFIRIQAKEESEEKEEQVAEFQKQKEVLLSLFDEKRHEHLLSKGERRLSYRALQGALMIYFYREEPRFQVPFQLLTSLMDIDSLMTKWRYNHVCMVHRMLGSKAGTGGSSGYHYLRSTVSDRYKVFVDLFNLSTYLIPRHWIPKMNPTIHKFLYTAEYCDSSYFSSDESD

The assay addresses T1, TDO2 (Homo sapiens, UniProt P48775).
T1 construct: decreased levels of NFK in SW48 cells (high TDO expressing cells)
The assay is described as follows: TDO2 cell assay (NFK GreenScreen, SW48 cells). The conditions noted are these: SW48 cells (high TDO expressing), 200 uM tryptophan, 24 hours; Table 3; read-out: TDO2 Cell Fluor EC50. The class given is cell-based.
Regarding `OC1CCOCC1C1c2cc(F)ccc2-c2cncn21` (single isomer, unassigned) [Example 75b], the EC50 turned out to be 1.2 µM. The figure for `N[C@H]1COC[C@H]1[C@H]1c2ccccc2-c2cncn21` [Example 32b, (3R,4R)-4-[(5S)-5H-imidazo[4,3-a]isoindol-5-yl]oxolan-3-amine] is 11 µM.

Take `NC(=O)c1cc2n(n1)CCC(C1c3ccccc3-c3cncn31)C2O` (single isomer, unassigned) [Example 172a]: the EC50 was over 25 µM.

Regarding `OC1COCC1C1c2ccc(F)cc2-c2cncn21` (single isomer, unassigned) [Example 30b], the EC50 is 15 µM. The figure for `O[C@H]1c2ccncc2CC[C@@H]1[C@H]1c2ccccc2-c2cncn21` (single isomer, unassigned) [Example 08e] is 0.23 µM. Next, `OC1c2ccnn2CCCC1C1c2ccccc2-c2cncn21` (single isomer, unassigned) [Example 133g]: 3 µM. The figure for `CC1(C)CCCC(C2c3ccccc3-c3cncn32)C1O` (single isomer, unassigned) [Example 24b] is 8.7 µM; for `O[C@@H]1c2ccncc2CC[C@H]1[C@H]1c2ccccc2-c2cncn21` [Example 08a, (5S,6S)-6-((S)-5H-imidazo[5,1-a]isoindol-5-yl)-5,6,7,8-tetrahydroisoquinolin-5-ol] it is 0.048 µM.

For `CC(C)(C)OC(=O)N1CC2(CC(C3c4ccccc4-c4cncn43)C2O)C1` (single isomer, unassigned) [Example 41g, tert-butyl 7-hydroxy-6-(5H-imidazo[1,5-b]isoindol-5-yl)-2-azaspiro[3.3]heptane-2-carboxylate], the EC50 was over 25 µM. Next, `Cn1ncc2c1CCC(C1c3ccccc3-c3cncn31)C2O` (single isomer, unassigned) [Example 93d]: 1.4 µM. Next, `NS(=O)(=O)N1CC[C@@H]([C@H]2c3ccccc3-c3cncn32)[C@H](O)C1` (single isomer, unassigned) [Example 39b]: 3.7 µM. With `OC1c2cnccc2CCC1C1c2ccccc2-c2cncn21` (single isomer, unassigned) [Example 04b], the EC50 was over 25 µM.

Turning to `OC1C(C2c3ccc(F)cc3-c3cncn32)CC12CCOCC2` (single isomer, unassigned) [Example 109e], the EC50 stood at 9.5 µM. On to `N#CC1CCC(O)(C2c3ccccc3-c3cncn32)CC1` (single isomer, unassigned) [Example 145b], for which the EC50 was determined as 1.1 µM.

Consider `O[C@H]1CCCC[C@H]1[C@H]1c2ccccc2-c2cncn21` [Example 03a, (1S,2S)-2-((S)-5H-imidazo[5,1-a]isoindol-5-yl)cyclohexan-1-ol], for which the EC50 is 0.077 µM.

Consider `O[C@@H]1c2cnccc2CC[C@H]1[C@H]1c2ccccc2-c2cncn21` (single isomer, unassigned) [Example 04h], for which the EC50 is 0.13 µM. For the molecule `NS(=O)(=O)N1CC(O)C(C2c3ccccc3-c3cncn32)C1` (single isomer, unassigned) [Example 28c], the EC50 was over 25 µM. On to `OC1c2nccn2CCC1C1c2ccccc2-c2cncn21` (single isomer, unassigned) [Example 88e], for which the EC50 was over 25 µM. Turning to `N#Cc1ccc2c(c1)CCC(C1c3ccccc3-c3cncn31)C2O` (single isomer, unassigned) [Example 62c], the EC50 amounted to 6.6 µM. On to `OC1CCOCC1C1c2c(F)cccc2-c2cncn21` (single isomer, unassigned) [Example 73d], for which the EC50 is over 25 µM. For the molecule `O=S1(=O)CC(O)C(C2c3ccccc3-c3cncn32)C1` (single isomer, unassigned) [Example 38b], the EC50 was 0.15 µM. In the case of `CS(=O)(=O)c1ccc2c(c1)CCC(C1c3ccccc3-c3cncn31)C2O` (single isomer, unassigned) [Example 36a], the EC50 was determined as 1.3 µM. For `CC(C)(C)OC(=O)N1CCC(O)C(C2c3ccccc3-c3cncn32)C1` (single isomer, unassigned) [Example 11d, tert-butyl 4-hydroxy-3-(5H-imidazo[5,1-a]isoindol-5-yl)piperidine-1-carboxylate], the EC50 came out at 22 µM. Next, `OC1c2nonc2CCC1C1c2ccccc2-c2cncn21` (single isomer, unassigned) [Example 163g]: 0.44 µM; `O[C@@H](C1CCCCC1)[C@@H]1c2ccccc2-c2cncn21` (single isomer, unassigned) [Example 148d]: over 25 µM. The figure for `OC1c2cc(CF)nn2CCC1C1c2ccccc2-c2cncn21` (single isomer, unassigned) [Example 95a] is over 25 µM.

With `N[C@@H]1COC[C@@H]1[C@H]1c2ccccc2-c2cncn21` [Example 32d, (3S,4S)-4-[(5S)-5H-imidazo[4,3-a]isoindol-5-yl]oxolan-3-amine], the EC50 was over 25 µM.

In the case of `OC1CC2(CC2)C1C1c2ccccc2-c2cncn21` (single isomer, unassigned) [Example 72a], the concentration for a half-maximal effect (EC50) stood at 6.6 µM. Next, `N#Cc1ccc2c(c1)[C@H](O)[C@H]([C@@H]1c3ccccc3-c3cncn31)CC2` (stereo in doubt) [Example 113e, (7S,8R)-8-hydroxy-7-((R)-5H-imidazo[5,1-a]isoindol-5-yl)-5,6,7,8-tetrahydronaphthalene-2-carbonitrile]: 1.3 µM; `NS(=O)(=O)N1CCC2(CC1)CC(C1c3ccccc3-c3cncn31)C2O` (single isomer, unassigned) [Example 181d]: 3 µM; `OC1CCCOCC1C1c2ccccc2-c2cncn21` (single isomer, unassigned) [Example 86b]: 0.52 µM. Next, `OC1COCC1C1c2ccccc2-c2cncn21` (single isomer, unassigned) [Example 26a]: over 25 µM; `N#CC1CCC(O)(C2c3ccccc3-c3cncn32)CC1` (single isomer, unassigned) [Example 145a]: 4.2 µM; `OC1c2[nH]ncc2CCC1C1c2ccccc2-c2cncn21` (single isomer, unassigned) [Example 157h]: 0.76 µM.

In the case of `O[C@H]1c2ccncc2CC[C@H]1[C@H]1c2ccccc2-c2cncn21` (single isomer, unassigned) [Example 08h], the EC50 is 0.1 µM. Next, `O[C@H]1c2c(Cl)cnn2CC[C@H]1[C@H]1c2ccccc2-c2cncn21` [Example 160b, (4R,5S)-3-chloro-5-((S)-5H-imidazo[5,1-a]isoindol-5-yl)-4,5,6,7-tetrahydropyrazolo[1,5-a]pyridin-4-ol]: 0.2 µM; `CC1(C)CC(O)(C2c3ccccc3-c3cncn32)C1` (racemic) [Example 147a, 1-(5H-imidazo[5,1-a]isoindol-5-yl)-3,3-dimethylcyclobutan-1-ol]: 0.81 µM. Next, `OC1CCCCC1C1c2ccccc2-c2cncn21` (single isomer, unassigned) [Example 03f]: 0.3 µM; `NS(=O)(=O)c1ccc2c(c1)CCC(C1c3ccccc3-c3cncn31)C2O` (single isomer, unassigned) [Example 100d]: over 25 µM; `OC1c2cnncc2CCC1C1c2ccccc2-c2cncn21` (single isomer, unassigned) [Example 112f]: 3.8 µM.

As to `CS(=O)(=O)c1ccc2c(c1)OCC(C1c3ccccc3-c3cncn31)C2O` (single isomer, unassigned) [Example 91g], the EC50 amounted to 2.3 µM.
